# Laboratory results: patent US4727080A, “1-substituted derivatives of 6-fluoro-7-(pyrrol-1-yl)-1,4-dihydro-4-oxoquinoline-3-carboxylic acid, their preparation and their application as drugs” (Provesan S.A., priority 1984, dated 1988)
# Assays:
# [1] = system: Enterobacter aerogenes ATCC 15038; experiment: "In vitro" MIC, Enterobacter aerogenes; format: cell-based; details: Klebsiella aerogenes, ATCC15038; Enterobacter aerogenes ATCC 15038; dextrose agar, 37° C., 20 hours; read-out: "In vitro" MIC
# Method: (§1) Antimicrobial pharmacological activity (G. L. Daquet and Y. A. Chabbect, Techniques en bacteriologie (Techniques in bacteriology), vol. 3, Flammarion Medecine-Sciences, Paris, 1972, and W. B. Hugo and A. D. Rusell, Pharmaceutical Microbiology, Blackwell Scientific Publications, London (1977).
# Enterobacter aerogenes ATCC 15038
# (§2) A streak culture of each of the microorganisms is formed in tubes of antibiotics agar no. 1 and incubated for 20 hours at 37° C. A culture loop is then taken and a culture is formed in a tryptone-soya broth and incubated for 20 hours at 37° C. The resulting culture is diluted to 1/4 with Ringer's physiological solution to give a standardized suspension of 10^5 ufc/ml for each organism.
# (§3) Starting from a solution of 1000 μg/ml in 0.1N NaOH, each product is diluted successively in dextrose agar (melted beforehand and kept at 50° C.) to give the following concentrations: 64-32-16-8-4-2-1-0.5-0.25-0.125 μg of derivative/ml of medium.
# (§4) After this, each concentration of each product is divided up into Petri dishes of 10 cm diameter at a rate of 10 ml of medium per dish and using as many dishes as there are microorganisms to be tested.
# (§5) Once the medium has cooled, the dishes are treated with the inoculations at a rate of 0.4 ml of inoculation per dish. They are spread out with a Drigalski loop and the supernatant is collected. The inoculated dishes are incubated at 37° C. for 20 hours.
# [2] = system: Serratia marcescens ATTC 13880; experiment: "In vitro" MIC, Serratia marcescens; format: cell-based; details: ATTC13880; Serratia marcescens ATTC 13880; dextrose agar, 37° C., 20 hours; read-out: "In vitro" MIC
# Method: as §1
# Serratia marcescens ATTC 13880
# as §2, §3, §4, §5
# [3] = system: Bacillus subtilis ATCC 6633; experiment: "In vitro" MIC, Bacillus subtilis; format: cell-based; details: ATCC6633; Bacillus subtilis ATCC 6633; dextrose agar, 37° C., 20 hours; read-out: "In vitro" MIC
# Method: as §1
# Bacillus subtilis ATCC 6633
# as §2, §3, §4, §5
# Proteus morganii CHSP-16 = experiment: "In vitro" MIC, Proteus morganii; format: cell-based; details: Morganella morganii, CHSP16; Proteus morganii CHSP-16; dextrose agar, 37° C., 20 hours; read-out: "In vitro" MIC
# Method: as §1, §2, §3, §4, §5
# [4] = system: Micrococcus flavus ATCC 10240; experiment: "In vitro" MIC, Micrococcus flavus; format: cell-based; details: ATCC10240; Micrococcus flavus ATCC 10240; dextrose agar, 37° C., 20 hours; read-out: "In vitro" MIC
# Method: as §1
# Micrococcus flavus ATTC 10240
# as §2, §3, §4, §5
# [5] = system: Klebsiella pneumoniae ATCC 10031; experiment: "In vitro" MIC, Klebsiella pneumoniae; format: cell-based; details: ATCC10031; Klebsiella pneumoniae ATCC 10031; dextrose agar, 37° C., 20 hours; read-out: "In vitro" MIC
# Method: as §1
# Klebsiella pneumoniae ATCC 10031
# as §2, §3, §4, §5
# [6] = system: Staphylococcus aureus ATCC 5488/23; experiment: "In vitro" MIC, Staphylococcus aureus ATCC 5488/23; format: cell-based; details: ATCC5488; Staphylococcus aureus ATCC 5488/23; dextrose agar, 37° C., 20 hours; read-out: "In vitro" MIC
# Method: as §1
# Staphylococcus aureus ATCC 5488/23
# as §2, §3, §4, §5
# [7] = system: Citrobacter freundii ATCC 11606; experiment: "In vitro" MIC, Citrobacter freundii; format: cell-based; details: ATCC11606; Citrobacter freundii ATCC 11606; dextrose agar, 37° C., 20 hours; read-out: "In vitro" MIC
# Method: as §1
# Citrobacter freundii ATCC 11606
# as §2, §3, §4, §5
# [8] = system: Salmonella typhimurium AMES 98; experiment: "In vitro" MIC, Salmonella typhimurium AMES 98; format: cell-based; details: Salmonella enterica; Salmonella typhimurium AMES 98; dextrose agar, 37° C., 20 hours; read-out: "In vitro" MIC
# Method: as §1
# Salmonella typhimurium AMES 98
# as §2, §3, §4, §5
# [9] = system: Proteus mirabilis ATCC 4675; experiment: "In vitro" MIC, Proteus mirabilis; format: cell-based; details: ATCC4675; Proteus mirabilis ATCC 4675; dextrose agar, 37° C., 20 hours; read-out: "In vitro" MIC
# Method: as §1
# Proteus mirabilis ATCC 4675
# as §2, §3, §4, §5
# [10] = system: Pseudomonas aeruginosa ADSA 47; experiment: "In vitro" MIC, Pseudomonas aeruginosa ADSA 47; format: cell-based; details: ADSA47; Pseudomonas aeruginosa ADSA 47; dextrose agar, 37° C., 20 hours; read-out: "In vitro" MIC
# Method: as §1
# Pseudomonas aeruginosa ADSA 47
# as §2, §3, §4, §5
# Shigella flexnerii = experiment: "In vitro" MIC, Shigella flexnerii; format: cell-based; details: 20 h, read-out: "In vitro" MIC
# Method: as §1, §2, §3, §4, §5
# Escherichia coli R-1513 = experiment: "In vitro" MIC, Escherichia coli R-1513; format: cell-based; details: R1513; Escherichia coli R-1513; dextrose agar, 37° C., 20 hours; read-out: "In vitro" MIC
# Method: as §1, §2, §3, §4, §5
# [11] = system: Escherichia coli ATCC 10536; experiment: "In vitro" MIC, Escherichia coli ATCC 10536; format: cell-based; details: ATCC10536; Escherichia coli ATCC 10536; dextrose agar, 37° C., 20 hours; read-out: "In vitro" MIC
# Method: as §1
# Escherichia coli ATCC 10536
# as §2, §3, §4, §5
# [12] = system: Enterobacter cloacae CHSP-20; experiment: "In vitro" MIC, Enterobacter cloacae; format: cell-based; details: CHSP20; Enterobacter cloacae CHSP-20; dextrose agar, 37° C., 20 hours; read-out: "In vitro" MIC
# Method: as §1
# Enterobacter cloacae CHSP-20
# as §2, §3, §4, §5
# [13] = system: Staphylococcus aureus ATCC 25178; experiment: "In vitro" MIC, Staphylococcus aureus ATCC 25178; format: cell-based; details: ATCC25178; Staphylococcus aureus ATCC 25178; dextrose agar, 37° C., 20 hours; read-out: "In vitro" MIC
# Method: as §1
# Staphylococcus aureus ATCC 25178
# as §2, §3, §4, §5
# [14] = system: Gram-negative microorganisms; experiment: "In vitro" antimicrobial activity compared with nalidixic acid, Gram-negative microorganisms; format: cell-based
# Method: as §1, §2, §3, §4, §5
# Acute toxicity to mice = details: mouse, in vivo, ip, suspension in 5% gum arabic, mortality over 7 days
# Method: The experimental animals used to determine this toxicity were albino mice of the C.F.L.P. strain and of both sexes, weighing between 19 and 25 grams. After an 18-hour fasting period with water "ad libitum", the derivatives forming the subject of the present invention are administered intraperitoneally as a suspension in 5% gum arabic. The volume of suspension administered was 0.4 ml/20 grams (20 ml/kg) in all cases, the concentration of the suspension being changed according to the dose administered.
# One hour after administration of the derivatives, the animals are given a standard Panlab rat-mouse food. The mortality was observed over a period of 7 days. Differences in mortality between the sexes were not observed with any of the products.
# [15] = system: Salmonella typhimurium AMES 100; experiment: "In vitro" MIC, Salmonella typhimurium AMES 100; format: cell-based; details: Salmonella enterica; Salmonella typhimurium AMES 100; dextrose agar, 37° C., 20 hours; read-out: "In vitro" MIC
# Method: as §1
# Salmonella typhimurium AMES 100
# as §2, §3, §4, §5
# Sarcina lutea ATCC 9341 = experiment: "In vitro" MIC, Sarcina lutea; format: cell-based; details: Micrococcus luteus, ATCC9341; Sarcina lutea ATCC 9341; dextrose agar, 37° C., 20 hours; read-out: "In vitro" MIC
# Method: as §1, §2, §3, §4, §5
# [16] = system: Streptococcus faecalis ATCC 10541; experiment: "In vitro" MIC, Streptococcus faecalis; format: cell-based; details: Enterococcus faecalis, ATCC10541; Streptococcus faecalis ATCC 10541; dextrose agar, 37° C., 20 hours; read-out: "In vitro" MIC
# Method: as §1
# Streptococcus faecalis ATCC 10541
# as §2, §3, §4, §5
# [17] = system: Pseudomonas aeruginosa 25115; experiment: "In vitro" MIC, Pseudomonas aeruginosa 25115; format: cell-based; details: Pseudomonas aeruginosa 25115; dextrose agar, 37° C., 20 hours; read-out: "In vitro" MIC
# Method: as §1
# Pseudomonas aeruginosa 25115
# as §2, §3, §4, §5
# Gram-positive cocci = experiment: "In vitro" antimicrobial activity compared with nalidixic acid, Gram-positive cocci; format: cell-based
# Method: as §1, §2, §3, §4, §5
Structure (SMILES),MIC [1],MIC [2],MIC [3],MIC (Proteus morganii CHSP-16),MIC [4],MIC [5],MIC [6],MIC [7],MIC [8],MIC [9],MIC [10],MIC (Shigella flexnerii),MIC (Escherichia coli R-1513),MIC [11],MIC [12],MIC [13],activity compared with nalidixic acid [14],LD50 at 168 h (Acute toxicity to mice),MIC [15],MIC (Sarcina lutea ATCC 9341),other results
"Cn1cc(C(=O)O)c(=O)c2cc(F)c(-n3cccc3)cc21 [Example 1, 6-fluoro-7-(pyrrol-1-yl)-1-methyl-4-oxo-1,4-dihydroquinoline-3-carboxylic acid]",2 µg/mL,16 µg/mL,0.125 µg/mL,2 µg/mL,4 µg/mL,1 µg/mL,0.5 µg/mL,2 µg/mL,4 µg/mL,4 µg/mL,≥ 32 µg/mL,4 µg/mL,4 µg/mL,0.05 µg/mL,2 µg/mL,0.5 µg/mL,activity of the same order as nalidixic acid,> 800 mg/kg,8 µg/mL,16 µg/mL,"MIC [16]: 32 µg/mL; MIC [17]: 16 µg/mL; ""in vitro"" activity compared with nalidixic acid (Gram-positive cocci): greater activity towards Gram-positive cocci"
"CCNn1cc(C(=O)O)c(=O)c2cc(F)c(-n3cccc3)cc21 [Example 8, 6-fluoro-7-(pyrrol-1-yl)-1-ethylamino-4-oxo-1,4-dihydroquinoline-3-carboxylic acid]",2 µg/mL,2 µg/mL,≤ 0.062 µg/mL,4 µg/mL,2 µg/mL,0.25 µg/mL,0.25 µg/mL,4 µg/mL,0.062 µg/mL,8 µg/mL,≥ 32 µg/mL,1 µg/mL,4 µg/mL,0.062 µg/mL,1 µg/mL,0.25 µg/mL,activity of the same order as nalidixic acid,> 1600 mg/kg,1 µg/mL,4 µg/mL,"MIC [16]: 4 µg/mL; MIC [17]: 16 µg/mL; ""in vitro"" activity compared with nalidixic acid (Gram-positive cocci): greater activity towards Gram-positive cocci"
"CCCn1cc(C(=O)O)c(=O)c2cc(F)c(-n3cccc3)cc21 [Example 5, 6-fluoro-7-(pyrrol-1-yl)-1-propyl-4-oxo-1,4-dihydroquinoline-3-carboxylic acid]",8 µg/mL,1 µg/mL,0.125 µg/mL,8 µg/mL,8 µg/mL,0.5 µg/mL,0.5 µg/mL,8 µg/mL,1 µg/mL,16 µg/mL,32 µg/mL,4 µg/mL,8 µg/mL,0.5 µg/mL,4 µg/mL,0.5 µg/mL,activity of the same order as nalidixic acid,> 1600 mg/kg,1 µg/mL,8 µg/mL,"MIC [16]: 8 µg/mL; MIC [17]: 32 µg/mL; ""in vitro"" activity compared with nalidixic acid (Gram-positive cocci): greater activity towards Gram-positive cocci"
